Reference: PMC3835680, “Inhibition of Nutlin-Resistant HDM2 Mutants by Stapled Peptides” (PLoS ONE, 2013)
“Also recorded” adds a separate entry of the source. FAM = carboxyfluorescein

Key:
[1] = tested on: HDM2-p53 interaction (wild-type HDM2); assay: In vitro pull-down assay, p53-HDM2 wild-type; format: binding; settings: 10 µM, IVT-expressed proteins
From the text: Single mutant HDM2 clones were generated by Quickchange mutagenesis (Stratagene) of parental HDM2-PET22b using appropriate primers 1-6. The constructs were amplified with primers petF2 and petR to make HDM2 amplicons with T7 promoter and ribosome binding site required for in vitro transcription-translation (IVT) of wild-type or mutant HDM2. Primers 1-6 were used to introduce mutations into the parental pCMV-HDM2 mammalian expression construct by Quickchange mutagenesis. Both the HDM2-PET22b and pCMV-HDM2 constructs additionally encode a C-terminal HA tag. The plasmid p53-PET22b was also amplified with petF2 and petR to make template for IVT of wild-type p53.
Protein G beads (Invitrogen) were incubated with anti-HA (1 µg per 10 µL beads) for 1 hour in PBST-3%BSA and subsequently washed twice in PBST-0.1%BSA. IVT-expressed wild-type or mutant HDM2 was incubated with the beads on a rotator for 30 mins. […] IVT-expressed p53 was added to the mixture and incubation allowed for 1 hour. Beads were finally washed thrice in PBST-0.1%BSA and thrice with PBS, and bound proteins eluted by resuspension in 20 µL SDS-PAGE loading buffer and incubation at 95°C for 5 minutes. […]

[2] = tested on: M62A HDM2 / p53 transactivation in p53/MDM2-null DKO cells; assay: p53 reporter assay in p53/MDM2-null DKO cells, HDM2 M62A; format: cell-based, mouse; settings: stapled peptide, 20 µM, mean ± SD (n=2)
Procedure: (§5) Mouse embryonic fibroblast p53/Mdm2 double-knockout (DKO) cells (a kind gift from Guillermina Lozano) [30] and H1299 p53^−/− cells [31] were maintained in Dulbecco's modified Eagle's medium (DMEM) with 10% (v/v) foetal calf serum (FCS) and 1% (v/v) penicillin/streptomycin. The cells were seeded at 1.0 × 10^5 cells/well in 6-well plates, 24 hours prior to transfection. Cells were co-transfected with wild-type or mutant HDM2 plasmid, p53-pcDNA plasmid, LacZ reporter plasmid and luciferase plasmid using TurboFect transfection reagent (Thermo Scientific) according to the manufacturer’s instructions. […] In all cases, the total amount of plasmid DNA transfected per well was equilibrated by addition of the parental vector pcDNA3.1a(+).
(§6) DKO cells were harvested 24hours after transfection and β-galactosidase activities were assessed using the Dual-light System (Applied Biosystems) according to the manufacturer's protocol. The β-galactosidase activity was normalized with luciferase activity for each sample.

HDM2 (1-125) P20L = target: T1, HDM2 (1-125) P20L (Homo sapiens, UniProt Q00987, P20L); assay: Fluorescence anisotropy, competitive titration, HDM2 P20L; format: binding; settings: P20L compared to wild-type
T1 construct: using purified HDM2 (1-125) and carboxyfluorescein (FAM) labeled 12-1 peptide; GST (N, cleaved yes); made in house; host or cells: E. coli BL21 DE3
Procedure: (§1) Cells harbouring the GST fusion constructs were grown in LB medium at 37°C to an OD600 of ~0.6 and induction was carried out with 1 mM IPTG at room temperature. Cells were harvested by centrifugation and the cell pellets were resuspended in 50 mM Tris pH 8.0, 10% sucrose and then sonicated. The sample was next centrifuged for 60 mins at 17,000 g at 4°C. The supernatant was applied to a 5 mL FF GST column (Amersham) pre-equilibrated in wash buffer (50 mM Tris-HCl pH 8.0, 150 mM NaCl, 1 mM DTT). The column was then further washed by 6 volumes of wash buffer. HDM2 constructs were then purified from the column by cleavage with Precission protease (GE Lifesciences). 10 units of precission protease, in one column volume of wash buffer, were injected onto the column. The cleavage reaction was allowed to proceed overnight at 4°C. The cleaved protein was then eluted off the column with wash buffer. Protein fractions were analyzed with SDS page gel and concentrated using Centricon (3.5 kDa MWCO) concentrator. […] Protein fractions were analyzed with SDS page gel and concentrated using a Centricon (3.5 kDa MWCO) concentrator, Millipore.
(§2) All titrations were carried out in triplicate. Curve-fitting was carried out using Prism 4.0 (GraphPad).

HDM2 (1-125) M62A = target: T2, HDM2 (1-125) M62A (Homo sapiens, UniProt Q00987, M62A); assay: Fluorescence anisotropy, competitive titration, HDM2 M62A; format: binding; settings: M62A compared to wild-type
T2 construct: using purified HDM2 (1-125) and carboxyfluorescein (FAM) labeled 12-1 peptide; GST (N, cleaved yes); made in house; host or cells: E. coli BL21 DE3
Procedure: as §1, §2

[3] = tested on: HDM2-p53 interaction (Q24R HDM2); assay: In vitro pull-down assay, p53-HDM2 Q24R; format: binding; settings: 10 µM, IVT-expressed proteins
From the text: (§3) Single mutant HDM2 clones were generated by Quickchange mutagenesis (Stratagene) of parental HDM2-PET22b using appropriate primers 1-6. The constructs were amplified with primers petF2 and petR to make HDM2 amplicons with T7 promoter and ribosome binding site required for in vitro transcription-translation (IVT) of wild-type or mutant HDM2. Primers 1-6 were used to introduce mutations into the parental pCMV-HDM2 mammalian expression construct by Quickchange mutagenesis. Both the HDM2-PET22b and pCMV-HDM2 constructs additionally encode a C-terminal HA tag.
(§4) Protein G beads (Invitrogen) were incubated with anti-HA (1 µg per 10 µL beads) for 1 hour in PBST-3%BSA and subsequently washed twice in PBST-0.1%BSA. IVT-expressed wild-type or mutant HDM2 was incubated with the beads on a rotator for 30 mins. […] IVT-expressed p53 was added to the mixture and incubation allowed for 1 hour. Beads were finally washed thrice in PBST-0.1%BSA and thrice with PBS, and bound proteins eluted by resuspension in 20 µL SDS-PAGE loading buffer and incubation at 95°C for 5 minutes. Both the eluates and inputs were subjected to electrophoresis, transferred to nitrocellulose membranes and probed for p53 with horseradish peroxidise conjugated DO1 antibody (Santa Cruz) or for HDM2 with anti-HA antibody followed by rabbit anti-mouse (Dakocytomation).

[4] = tested on: wild-type HDM2 / p53 transactivation in p53/MDM2-null DKO cells; assay: p53 reporter assay in p53/MDM2-null DKO cells, wild-type HDM2; format: cell-based, mouse; settings: stapled peptide, 20 µM, mean ± SD (n=2)
Procedure: as §5, §6

[5] = tested on: HDM2-p53 interaction (M62A HDM2); assay: In vitro pull-down assay, p53-HDM2 M62A; format: binding; settings: 10 µM, IVT-expressed proteins
From the text: as §3, §4

HDM2 (1-125) Q24R = target: T3, HDM2 (1-125) Q24R (Homo sapiens, UniProt Q00987, Q24R); assay: Fluorescence anisotropy, competitive titration, HDM2 Q24R; format: binding; settings: Q24R compared to wild-type
T3 construct: using purified HDM2 (1-125) and carboxyfluorescein (FAM) labeled 12-1 peptide; GST (N, cleaved yes); made in house; host or cells: E. coli BL21 DE3
Procedure: as §1, §2

HDM2 Y104G = settings: mutation in secondary Nutlin binding site; ref [54]; cited from earlier work
From the text: Studies have shown that K51 of HDM2 interacts with E23 and E25 of HDM ...

[6] = tested on: wild-type and mutant (M62A, Q24R) HDM2; p53-dependent genes in HCT116 p53^+/+ cells; assay: RT-qPCR of p53-regulated genes in HCT116 p53+/+ cells transfected with HDM2 variants; format: cell-based; settings: Nutlin 10 µM; M62A and Q24R compared to wild-type; 24 h post-transfection; RT-qPCR (n=2)
From the text: In all cases, the total amount of plasmid DNA transfected per well was equilibrated by addition of the parental vector pcDNA3.1a(+).

HDM2 M62 = settings: ref [19]; cited from earlier work
From the text: Modelling studies show the hydrophobic hydrocarbon chain comprising the staple interacts with HDM2 in the vicinity of M62 (Figure 6). Whilst the M62A mutation impacts negatively on binding of both stapled peptide and p53 compared to wild type HDM2, the presence of additional “fall-back” interactions (apart from M62, see below) results in marginal overall loss of binding by these ligands. […] Mutation to alanine causes marg ...

[7] = tested on: p53 (1-81) - HDM2 (7-134) interaction, wild-type, Q24R and M62A, in BHK cells; assay: Fluorescent 2-Hybrid (F2H) co-localization assay; format: cell-based; settings: 1 hour at 37°C, titration, difference particularly evident at 1-10 µM for Nutlin, n=4
Procedure: Interaction (%) was determined as the ratio of cells showing co-localization of fluorescent signals at the nuclear spot to the total number of evaluated cells. To enable comparison between the experiments, a normalization step was performed. For each independent experiment, the interaction ratios in treated wells were normalized to the interaction ratios in control (untreated) wells:
I % = 100% * Interactions_treated/Interactions_untreated
In this way, the control values in each experiment are taken to be 100%. For automated image acquisition an INCell Analyzer 1000 with a 20X objective (GE Healthcare) was used. Automated image segmentation and analysis was performed with the corresponding INCell Workstation 3.6 software. At least 100 co-transfected cells were analyzed per well. Titrations were carried out independently three to five times.
For the F2H assay, significance (t-test) is denoted relative to the percentage interactions observed for wild-type HDM2 under the indicated treatment conditions. For transcript analysis by real-time PCR, two-way ANOVA with Bonferroni post test was performed using GraphPad Prism software.

[8] = target: T4, HDM2 (1-125), wild-type, purified (human, UniProt Q00987 1-125); assay: fluorescence polarisation; competitive fluorescence anisotropy titrations against FAM-labelled 12-1 peptide with purified HDM2 (1-125); apparent Kds; PBS pH 7.4, 3% DMSO, 0.1% Tween 20
T4 construct: source: E. coli BL21 DE3, purified (GST column, PreScission cleavage, ResourceS)

[9] = target: T5, HDM2 (1-125) P20L, purified (human, UniProt Q00987 1-125, P20L); assay: as above
T5 construct: source: E. coli BL21 DE3, purified (GST column, PreScission cleavage, ResourceS)

[10] = target: T6, HDM2 (1-125) M62A, purified (human, UniProt Q00987 1-125, M62A); assay: as above
T6 construct: also called HDM2-M62A; source: E. coli BL21 DE3, purified (GST column, PreScission cleavage, ResourceS)

[11] = target: T7, HDM2 (1-125) Q24R, purified (human, UniProt Q00987 1-125, Q24R); assay: as above
T7 construct: source: E. coli BL21 DE3, purified (GST column, PreScission cleavage, ResourceS)
T7 sequence (Q00987 1-125 Q24R): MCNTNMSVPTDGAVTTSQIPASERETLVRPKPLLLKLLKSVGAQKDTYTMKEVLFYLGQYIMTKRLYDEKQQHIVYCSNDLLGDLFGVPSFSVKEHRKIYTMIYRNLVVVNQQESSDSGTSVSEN

T6 sequence (Q00987 1-125 M62A): as the sequence (Q00987 1-125 Q24R) above, with R24Q, M62A counted along it
T4 sequence (Q00987 1-125): as the sequence (Q00987 1-125 Q24R) above, with R24Q counted along it
T5 sequence (Q00987 1-125 P20L): as the sequence (Q00987 1-125 Q24R) above, with P20L, R24Q counted along it
T3 sequence (Q00987 1-125 Q24R): as the sequence (Q00987 1-125 Q24R) above
T2 sequence (Q00987 1-125 M62A): as the sequence (Q00987 1-125 Q24R) above, with R24Q, M62A counted along it
T1 sequence (Q00987 1-125 P20L): as the sequence (Q00987 1-125 Q24R) above, with P20L, R24Q counted along it

CC(=O)N[C@H](C(=O)N[C@@H](CO)C(=O)N[C@@H](Cc1ccccc1)C(=O)N[C@]1(C)CCCCCCC=CCCC[C@@](C)(C(N)=O)NC(=O)[C@H](CC(C)C)NC(=O)[C@H](CC(C)C)NC(=O)[C@H](C)NC(=O)[C@H](Cc2c[nH]c3cc(Cl)ccc23)NC(=O)[C@H](Cc2ccc(O)cc2)NC(=O)[C@H](CCC(=O)O)NC1=O)[C@@H](C)O [MO11]
Inhibition of p53-HDM2 interaction (pull-down, Western blot) [1]: strong repression of the HDM2-p53 interaction; also recorded: inhibition of p53 binding to both WT and mutant HDM2
p53 reporter activity restored (percentage of activity with p53-only transfection) [2]: 47%
Change of binding affinity versus wild-type HDM2 (HDM2 (1-125) P20L): not perturbed
Change of binding affinity versus wild-type HDM2 (HDM2 (1-125) M62A): very slight perturbation of binding
Inhibition of p53-HDM2 interaction (pull-down, Western blot) [3]: able to abrogate the mutant HDM2-p53 interaction as efficiently as Nutlin inhibits the wild-type HDM2-p53 interaction; also recorded: inhibition of p53 binding to both WT and mutant HDM2
p53 reporter activity restored (percentage of activity with p53-only transfection) [4]: 51%
Inhibition of p53-HDM2 interaction (pull-down, Western blot) [5]: able to abrogate the mutant HDM2-p53 interaction as efficiently as Nutlin inhibits the wild-type HDM2-p53 interaction; also recorded: inhibition of p53 binding to both WT and mutant HDM2
Change of binding affinity versus wild-type HDM2 (HDM2 (1-125) Q24R): not perturbed

COc1ccc(C2=N[C@@H](c3ccc(Cl)cc3)[C@@H](c3ccc(Cl)cc3)N2C(=O)N2CCNC(=O)C2)c(OC(C)C)c1 [Nutlin]
Binding to HDM2 Y104G (HDM2 Y104G): recalcitrant to Nutlin binding
Inhibition of p53-HDM2 interaction (pull-down, Western blot) [1]: strong repression of the HDM2-p53 interaction; also recorded: inhibits p53-HDM2 interaction
p53 activation of p21, gadd45α and 14-3-3σ transcript levels, mutants versus wild-type HDM2 [6]: significant reduction of p53 transcriptional activity was observed for the M62A and Q24R mutants compared to wild-type
Effect of loss of M62 contact on Nutlin binding (HDM2 M62): major loss of binding
Dissociation of p53-HDM2 complex, mutants (Q24R, M62A) versus wild-type (F2H) [7]: reduced dissociation of mutant N-terminal domains from p53, indicating Nutlin resistance; also recorded: increased dissociation of WT-p53 complex compared to Q24R/M62A-p53 complexes

P53 peptide (ligand of Table 1)
Kd [8]: 13.9 nM
Kd [9]: 17.2 nM
Kd [10]: 29.6 nM
Kd [11]: 10.4 nM

B1: carboxyfluorescein (FAM) labeled 12-1 peptide (FAM-RFMDYWEGL-NH2) (peptide)
peptide: {FAM}-RFMDYWEGL-NH2
notes: that it is not a natural p53 stretch is my surmise
binding result ([8]; both partners purified): binds
binding result ([9]; both partners purified): binds
binding result ([10]; both partners purified): binds
binding result ([11]; both partners purified): binds
